PubChem BioAssay (NCI)
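Tested at 5 concentrations; 48 h exposure; 96-well plates; endpoints linearly interpolated, else capped at highest concentration. TGI: total growth inhibition.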

Assays:
Assay in all cases: growth of human tumour cells (NCI), 48 h
UACC-62 melanoma = tested on: UACC-62 melanoma
TK-10 renal = tested on: TK-10 renal
NCI-H460 lung = tested on: NCI-H460 lung
786-0 renal = tested on: 786-0 renal
HCC-2998 colon = tested on: HCC-2998 colon
SK-OV-3 ovarian = tested on: SK-OV-3 ovarian
OVCAR-8 ovarian = tested on: OVCAR-8 ovarian
EKVX NSCLC = tested on: EKVX NSCLC
SNB-75 CNS = tested on: SNB-75 CNS
RXF 393 renal = tested on: RXF 393 renal
M14 melanoma = tested on: M14 melanoma
CCRF-CEM leukemia = tested on: CCRF-CEM leukemia
HT29 colon = tested on: HT29 colon
UO-31 renal = tested on: UO-31 renal
PC-3 prostate = tested on: PC-3 prostate
MDA-MB-435 = tested on: MDA-MB-435
MDA-MB-231 breast = tested on: MDA-MB-231 breast
MOLT-4 leukemia = tested on: MOLT-4 leukemia
HOP-62 NSCLC = tested on: HOP-62 NSCLC
K-562 leukemia = tested on: K-562 leukemia
NCI/ADR-RES ovarian = tested on: NCI/ADR-RES ovarian
A498 renal = tested on: A498 renal
HOP-92 NSCLC = tested on: HOP-92 NSCLC
SNB-19 CNS = tested on: SNB-19 CNS
NCI-H226 lung = tested on: NCI-H226 lung
U251 CNS = tested on: U251 CNS
NCI-H23 lung = tested on: NCI-H23 lung
LOX IMVI melanoma = tested on: LOX IMVI melanoma
OVCAR-4 ovarian = tested on: OVCAR-4 ovarian
BT-549 breast = tested on: BT-549 breast
IGROV1 ovarian = tested on: IGROV1 ovarian
KM12 colon = tested on: KM12 colon
DU-145 prostate = tested on: DU-145 prostate
HCT-116 colon = tested on: HCT-116 colon
HL-60(TB) leukemia = tested on: HL-60(TB) leukemia
SF-295 CNS = tested on: SF-295 CNS
SK-MEL-2 melanoma = tested on: SK-MEL-2 melanoma
SK-MEL-5 melanoma = tested on: SK-MEL-5 melanoma
CAKI-1 renal = tested on: CAKI-1 renal
T-47D breast = tested on: T-47D breast
ACHN renal = tested on: ACHN renal
HCT-15 colon = tested on: HCT-15 colon
MCF7 breast = tested on: MCF7 breast
UACC-257 melanoma = tested on: UACC-257 melanoma
SF-539 CNS = tested on: SF-539 CNS
SK-MEL-28 melanoma = tested on: SK-MEL-28 melanoma
SR leukemia = tested on: SR leukemia
HS 578T breast = tested on: HS 578T breast
COLO 205 colon = tested on: COLO 205 colon
SW-620 colon = tested on: SW-620 colon
RPMI-8226 leukemia = tested on: RPMI-8226 leukemia
SF-268 CNS = tested on: SF-268 CNS

Measured: TGI

CC1=NN(c2nc(N)nc(COc3ccc(N)cc3)n2)C(C)(C)C1
> 100 µM: all assays above
